# In patent US11826341B2, “Baicalein analogs for use in neuroprotection and regulation of immune reactivity” (THE HONG KONG POLYTECHNIC UNIVERSITY, priority 2021, dated 2023):
# Entries after “also recorded” stand apart in the source; their conditions may differ.
# Key:
# RGCs = experiment: RGC survival in vivo after retinal ischemia/reperfusion injury (Brn-3a whole-mount retina); parameters: species or system mice; settings: 4 weeks after ischemia/reperfusion, injured control 2,314+/−383, uninjured 3,901+/−145
# Protocol: (§1) (A) representative photomicrographs showing Brn-3a staining a whole-mounted retina from four weeks after ischemia injury in vehicle, 10 μM or 100 μM baicalein group; (B) bar graph quantifying the number of survived RGCs in 4 weeks post-injury retina from vehicle, 10 μM or 100 μM baicalein group; (C) bar graph the number of live primary RGC survival rate in vehicle, 1 μM baicalein group. Bar=20 μm. *P<0.05; **P<0.01 value was statistically analyzed by one-way ANOVA.
# (§2) Example 1—Baicalein improves RGCs survival in vitro culture or after ischemia/reperfusion damages. To study the effect of baicalein on retinal neurons, we carried out in vitro RGC cultures and in vivo studies of RGCs survival in experimental models of retinal ischemia/reperfusion injury. RGC density dropped from 3,901+/−145 cells/mm^2 to 2,314+/−383 cells/mm^2 at 4 weeks following ischemia/reperfusion injury. […] Moreover, purified mouse RGCs were cultured with vehicle, 1 μM or 10 μM Baicalein for 48 hours.
# purified mouse RGCs = experiment: Purified RGC culture survival; type: cell-based; settings: 48 hours, vehicle 35.8+/−1.3%
# Protocol: as §1, §2
# [1] = system: ischemia/reperfusion mice; experiment: Optomotor response (OMR) after ischemia/reperfusion injury; type: in vivo
# Protocol: (K) Graphs showing contrast sensitivity (CS) and (L) visual acuity (VA) of optomotor response (OMR) in mice received ischemia/reperfusion and intravitreal injections of vehicle, 10 μM or 100 μM baicalein. Error bar=SEM. *P<0.05; **P<0.01.
# CD4+ T cells = experiment: Flow cytometry of CD4+ T cells in retina and superior cervical lymph nodes after ischemia/reperfusion; type: in vivo, mice; settings: 100 μM
# Protocol: (A) 1 wk representative flow images and (B) quantification of the CD4+ cell percentage in the retina at 1 wk and 4 wks timepoint. Flow cytometry quantification of frequencies of subsets of CD4+ T cells in the draining LNs of the eye taken from mice at 1 wk (C) and 4 wks (D) after acute ischemic injury in vehicle or 100 μM baicalein given group. Shown were percentages of CD4+ T cells that expressed IFN-γ, IL-17, IL-4, IL-10 or TGF-β among fresh-isolated total LN lymphocytes. […] Th1, Th2, Th17, and Treg cells, again were divided based on the expression profile of hallmark cytokines: IFN-γ (TH1), IL-4 (TH2), IL-10 (TH2), IL-17 (TH17), and TGF-β (Treg)^16.
# retinal microglia = experiment: qPCR of activated microglia markers and pro-inflammatory cytokines in retina after ischemia/reperfusion; type: in vivo, mice; settings: 100 μM
# Protocol: Quantifications of qPCR assay showing the relative expression of (B) activated microglia markers and (C) pro-inflammatory cytokines in normal mice, and mice at 1 wk and 4 wks post ischemia/reperfusion retina from vehicle or 100 μM Ba given group. Error bar-SEM. *P<0.05.
# [2] = system: human microglia HMC3 cell line; experiment: PI3K and NFkB immunostaining in LPS and ATP challenged microglia; type: cell-based; settings: 10 μM; LPS and ATP challenged human microglial cells
# Protocol: (§3) FIG. 5 Baicalein suppresses PI3K and NFkB pathway in both primary mouse brain microglia and human microglia HMC3 cell line in vitro. (A) Representative bright field images of primary mouse brain microglia and images immunostained with DAPI (blue), p85 PI3K (red) and p65 NFkB (green) antibody in LPS and ATP plus vehicle or 10 μM baicalein delivered group respectively. Scale bar=40 μm (B) Representative human microglia images immunostained with DAPI (blue), p85 PI3K (red) and p65 NFkB (green) antibody in LPS and ATP plus vehicle or 10 μM baicalein delivered group respectively. Error bar=SEM. *P<0.05; **P<0.01. Scale bar=100 μm.
# (§4) To further understand if the effects of suppressing microglia activation and cytokines release are related with NFkB and PI3K pathway, we examine the performance of baicalein in primary mouse microglia and human microglial cell line HMC-3.
# [3] = system: primary mouse brain microglia; experiment: as above; type: cell-based; settings: 10 μM; LPS and ATP challenged mouse microglial cells
# Protocol: as §3, §4
# HMC-3 = experiment: Intracellular calcium after ATP stimulation; type: cell-based, human; settings: 10 μM pretreatment 24 hrs; 50 μM ATP stimulation
# Protocol: (A) Changes of [Ca^2+]i in cultured HMC-3 with pretreatment of vehicle or 10 μM baicalein for 24 hrs. […] (B) Quantification of [Ca^2]i levels in different treatment groups after stimulation (n=6 cultures/group, and 10-20 neurons were recorded from each group). […] To verify the effect of baicalein on the influence of microglia state, the measurement of intracellular calcium concentration [Ca2+]I was applied. After adding 50 μM ATP to microglial cells, the influx of [Ca2+]I was triggered immediately in naïve group.
# [4] = system: human microglia HMC3 cell line; experiment: Cytokine array of culture media after LPS and ATP challenge; type: cell-based; settings: 1 μM or 10 μM for 42 hours after 6 hours LPS and 30 mins ATP
# Protocol: (§5) (A) Quantification the averaged pixel density of selected cytokines produced by human microglia cell line HMC-3 culture. […] Error bar=SEM. *P<0.05; **P<0.01. Scale bar=100 μM. One-way ANOVA. […] After 6 hours LPS stimulation and additional 30 mins ATP challenge, vehicle, 1 μM or 10 μM baicalein was delivered to the culture media for an additional 42 hours. The culture media from different groups was collected for the cytokine array, while the cells were lysed for qPCR to identify the mRNA level.
# [5] = system: human microglia HMC3 cell line; experiment: qPCR of pro-inflammatory genes after LPS and ATP challenge; type: cell-based; settings: 1 μM or 10 μM for 42 hours after LPS and ATP
# Protocol: as §5
# [6] = system: ischemia/reperfusion mice; settings: mouse, in vivo
# Protocol: The results of electroretinogram (ERG) and optomotor response (OMR) measurements were used to determine the changes of visual functions after ischemia/reperfusion damages. For ERG measurement, positive scotopic threshold response (pSTR), scotopic a- and b-wave, M-cone and 10 Hz flicker amplitudes were obtained from the three experimental groups (i.e. vehicle, 10 μM and 100 μM baicalein) at baseline, 1 wk, 2 wks and 4 wks post-ischemia/reperfusion injury (FIGS. 2A, 2B, 2C, 2D, 2E, 2F, 2G, 2H, 2I and 2J). […] At the same time, the electrical signals from M-cone and 10 Hz-flicker stimulus were also captured (FIGS. 2F, 2G, 2H, 2I and 2J).
# [7] = 100 μM weekly intravitreal, 4 weeks after ischemia
structure (smiles),measurement,setting,value
"O=c1cc(-c2ccccc2)oc2cc(O)c(O)c(O)c12 [baicalein, 5,6,7-trihydroxyflavone]",RGC density,RGCs; 10 μM intravitreal injection day 1 after injury,"3,480+/−197 cells/mm^2"
same,RGC density,RGCs; 100 μM intravitreal injection day 1 after injury,"3,604+/−137 cells/mm^2"
same,RGC survival rate,purified mouse RGCs; 1 μM,42.0+/−1.2%
same,RGC survival rate,purified mouse RGCs; 10 μM,41.1+/−1.9%
same,visual acuity,"[1]; 10 μM intravitreal, after ischemia injury",improvement
same,contrast sensitivity,[1]; [7],improved
same,visual acuity,[1]; [7],improved
same,IFNγ (TH1) CD4+ T cells in superior cervical LNs,CD4+ T cells; 1 and 4 weeks after ischemic injury,significantly inhibited
same,IL-10 (TH2) expression in superior cervical LNs,CD4+ T cells; 4-week post-injury,lower than that of vehicle-treated
same,IL-4 (TH2) level in superior cervical LNs,CD4+ T cells; 4-week time point,lower than vehicle group
same,number of infiltrated T cells in the retina,CD4+ T cells; after ischemia/reperfusion injury,decrease
same,"mRNA levels of activated microglia markers Iba-1, YM-1 and Nox2",retinal microglia; retina 1- and 4-week post injury,relatively low mRNA levels
same,"pro-inflammatory cytokines CCL2, IL-1α (qPCR)","retinal microglia; retina, vs vehicle group",down-regulated
same,PI3K and NFkB pathway activation,[2],effectively reduce
same,PI3K and NFkB pathway activation,[3],effectively reduce
same,elevation of intracellular calcium [Ca2+]i,HMC-3,delayed Ca^2+ influx with reduced magnitude; also recorded: suppressed effectively
same,"release of pro-inflammatory factors (CCL2, Cxcl10, IL-1α, IL-10, TNFα, etc)",[4],largely draw the release of pro-inflammatory factors to the resting level
same,IL-6 expression level,[5],significant suppression
same,expression of IL-10 and TNFα,[5]; vs vehicle group,dramatically dropped
same,mRNA fold changes of IL-1β and TNFα,[5]; vs vehicle group,consistent anti-inflammation effects
same,Scotopic ERG a wave and b wave (bipolar cells),[6],protective effects
